{"source": "patent US10870875B2", "about": "“Metalloprotein compositions” (Commonwealth Scientific and Industrial Research Organisation, priority 2014, dated 2020)", "key": {"[1]": {"molecular_target": "T1, recombinant honeybee (Apis mellifera) silk protein AmelF3, unmodified, SEQ ID NO: 39 (Apis mellifera, UniProt A0ACM8QI31)", "T1 construct": "sponges and films", "T1 sequence (A0ACM8QI31 entry or part of it)": "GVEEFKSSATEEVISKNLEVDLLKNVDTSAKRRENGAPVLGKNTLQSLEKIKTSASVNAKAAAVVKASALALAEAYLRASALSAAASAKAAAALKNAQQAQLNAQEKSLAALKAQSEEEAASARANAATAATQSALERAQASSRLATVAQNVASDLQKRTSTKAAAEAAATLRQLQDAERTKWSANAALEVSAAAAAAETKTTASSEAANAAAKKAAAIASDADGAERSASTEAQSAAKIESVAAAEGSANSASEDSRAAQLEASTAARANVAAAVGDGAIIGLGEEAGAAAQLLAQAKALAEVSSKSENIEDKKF", "experiment": "Binding of macrocycles/chelates to AmelF3 sponges or films (colour retained after washing, UV/Vis)", "conditions": "sponge or film, qualitative", "method": "Full length, recombinant honeybee silk proteins (AmelF3) without affinity purification tags, were produced by fermentation in Escherichia coli as described in Weisman et al. (2010). Full length, recombinant Weaver Ant/Green Ant (Oecophylla smaragdina) silk proteins (GA1, GA2, GA3, GA4) without affinity purification tags, were produced by fermentation in Escherichia coli following the same procedures as outlined in Weisman et al. (2010).\nAmelF3 sponges were prepared as described in example 1. […] The colour change observed with honeybee silk indicates a change in the coordination of the iron metal centre within the haem group, producing a material with a similar coordination to red haemoglobin. The colour was not removed by extensive washing with 70% methanol, 0.1M HCl or 0.1M NaCl.\nAn embodiment of the composition of the present invention was formed by co-drying a solution of AmelF3 and haem b. Briefly, 2 mg haem b and 20 mg AmelF3 silk sponge was dissolved in 1 mL of HFIP overnight at room temperature. The solution was aliquoted into either a cuvette or 24-well plate and dried at room temperature. The dried film was soaked overnight in 70% methanol to make the film insoluble in water.\nAlternatively, haem b was ‘leached’ into a pre-formed film. The AmelF3 material was formed as described in example 1. The silk material was soaked in a solution of haem b (0.5 mg/mL; haem b in excess) in 70% methanol solution for between 1 and 48 hours followed by washing with 70% methanol to remove any unbound haem b and dried at room temperature.\nAmelF3 films with different ratios of haem b to AmelF3 were prepared by co-drying haem and AmelF3 HFIP solutions. At low haem loadings (haem:protein molar ratios of 1:1 and 1:2), a sharp Soret peak at 404 nm was observed, indicative of all the haem being coordinated (FIG. 3). As the concentration of haem b relative to the protein was increased, the Soret peak broadened and shifted to lower wavelengths indicating an increase in the amount of uncoordinated haem (FIG. 3).\nThe ability of sponges generated from recombinant AmelF3 to bind a range of macrocyles was tested by adding a solution of the macrocmacrocycle containing an excess of the macrocycle to be tested to the AmelF3 sponge and observing the colour of the sponge and whether the sponge retained colour after washing. The strength of macrocycle binding was assessed qualitatively by assessing the intensity of the colour retained by the sponge after washing. Strong binding to the sponge refers to the finding that the macrocycle cannot be washed out with aqueous methanol, organic solvents, 0.1 M HCl or 0.1 M NaOH.\nFilms generated from recombinant honeybee silk protein AmelF3 containing dicyanocobyrinic acid heptamethyl ester were prepared as described in example 3. UV/Vis spectrum were recorded for a film generated from recombinant AmelF3 containing dicyanocobyrinic acid heptamethyl ester and a solution of dicyanocobyrinic acid heptamethyl ester without AmelF3 (FIG. 8)."}, "[2]": {"molecular_target": "T2, Apis mellifera AmelF3 (SEQ ID NO: 39) variant Tyr76Ala (Apis mellifera, UniProt A0ACM8QI31, Y95A)", "T2 construct": "sponge or film", "T2 sequence (A0ACM8QI31 entry or part of it Y95A)": "as the sequence (A0ACM8QI31 entry or part of it) above, with Y76A counted along it", "experiment": "Binding of chelates to AmelF3 Tyr76Ala sponges or films", "conditions": "sponge washed with aqueous methanol, qualitative", "method": "Site directed mutagenesis of honeybee silk proteins was carried using methods known to the person skilled in the art. For example, to generate AmelF3 Tyr76Ala, the forward primer 5′-[…]-3′ (SEQ ID NO: 80) with the corresponding reverse primer was employed and site directed mutagenesis was carried out using Pfx 50 DNA polymerase from Invitrogen following the Pfx50 manufactures instructions. All AmelF3 mutants were expressed and purified using a similar procedure as the unmodified AmelF3 silk protein. To generate AmelF3 Tyr76His, the forward primer 5′-[…]-3′ (SEQ ID NO: 81) with the corresponding reverse primer was employed. To generate AmelF3 Ala97His, the forward primer 5′-[…]-3′ (SEQ ID NO: 82) was used.\nTo test whether Tyr76 was indeed the coordinating ligand, the present inventors replaced Tyr76 with an alanine using site directed mutagenesis of the AmelF3 silk gene."}}, "data": [{"smiles": "C=CC1=C(C)c2cc3[nH]c(cc4nc(cc5[nH]c(cc1n2)c(C)c5CCC(=O)O)C(CCC(=O)O)=C4C)c(C)c3C=C.[Fe]", "note": "[haem b]", "values": [{"measurement": "binding to silk protein (in words)", "setting": "[1]", "value": "strongly bound"}, {"measurement": "binding to silk protein (in words)", "setting": "[2]", "value": "bound to the silk protein, the metal ion was not coordinated to the polypeptide"}]}]}
